The record followed here is ChEMBL document CHEMBL4627321, “Enantioselective synthesis of tetrahydrocarbazoles via trienamine catalysis and their anxiolytic-like activity” (Bioorg Med Chem Lett, 2020).

Molecules are shown by their SMILES. The source made the active and inactive calls. No cut-off for these calls is given here.

The test system of data set [1] is Mus musculus. The data set is described as follows: Anxiolytic activity in BALB/c mouse assessed as reduction in anxiety like behaviour administered orally 1 hr prior to experiment by cylinder exploratory test. The format is functional. The following applies: for ED50: po.
The test system of data set [2] is Mus musculus. Put plainly: Anxiolytic activity in BALB/c mouse at 7.7 mg/kg, po after 5 mins in presence of 1 mg/kg yohimbine by cylinder exploratory test. The format is functional, organism-based.
Data set [3] in a line: Effect on locomotor activity in BALB/c mouse assessed as reduction in time spent in rotarod at 100 mg/kg, po measured after 1 hr post treatment by rotarod test. The format is ADME, organism-based. The settings on record: in vivo. In general terms: In the rotarod test animals must keep their balance on a rotating rod.
In data set [4] the test system is Mus musculus. The data set is described as follows: Anxiolytic activity in BALB/c mouse at 7.7 mg/kg, po after 5 mins in presence of GABAA receptor antagonist 0.7 mg/kg bicuculline by cylinder exploratory test. Type of data set: functional, organism-based.
Data set [5] deals with Mus musculus. Put plainly: Anxiolytic activity in BALB/c mouse at 7.7 mg/kg, po after 5 mins in presence of 1 mg/kg ketanserin by cylinder exploratory test. The format is functional, organism-based.
Data set [6] is described as follows: Effect on locomotor activity in BALB/c mouse assessed as reduction in time spent in rotarod at <25 mg/kg, po by rotarod test. Type of data set: ADME, organism-based. The settings on record: in vivo.
For data set [7], the system named is Mus musculus. Put plainly: Anxiolytic activity in BALB/c mouse at 25 mg/kg, po administered 1 hr prior to experiment by cylinder exploratory test relative to control. Type of data set: functional.
The subject of data set [8] is Mus musculus. The data set is described as follows: Anxiolytic activity in BALB/c mouse at 3.3 mg/kg, po after 5 mins in presence of 1 mg/kg ketanserin by cylinder exploratory test. Type of data set: functional, organism-based.
For data set [9], the system named is Mus musculus. Put plainly: Anxiolytic activity in BALB/c mouse at 3.3 mg/kg, po after 5 mins in presence of 1 mg/kg yohimbine by cylinder exploratory test. The format is functional, organism-based.
Data set [10] deals with Mus musculus. Put plainly: Anxiolytic activity in BALB/c mouse at 3.3 mg/kg, po after 5 mins in presence of GABAA receptor antagonist 0.7 mg/kg bicuculline by cylinder exploratory test. The format is functional, organism-based.

By ED50 is commonly meant the dose that gives a 50% effect, or the effect in half of the subjects. As to `CCOC(=O)[C@]1(C#N)[C@@H](c2ccccc2)Cc2c(c3ccccc3n2Cc2ccccc2)[C@@H]1CC=O`, the Activity entry with Mus musculus [1] was “Dose-dependent effect”; in [3], “Toxic”; in [6] it was “Non-Toxic”; in the data set on Mus musculus [7], 83.4%. The ED50 with Mus musculus [1] was found to be 7.7 mg/kg. In addition, the outcome in the data set with Mus musculus [2] and with Mus musculus [5] was Active. The result in the data set on Mus musculus [4] was inactive.

On to `CCOC(=O)[C@]1(C#N)[C@@H](c2ccccc2)Cc2c(c3ccccc3n2C(=O)OC(C)(C)C)[C@@H]1CC=O`, for which the Activity entry in the data set with Mus musculus [1] was “Dose-dependent effect”; in data set [6] it was “Non-Toxic”; in the data set on Mus musculus [7], 72%. Further, the ED50 in the data set with Mus musculus [1] was 3.3 mg/kg. The result with Mus musculus [8] and with Mus musculus [9] was Active. In addition, in the data set on Mus musculus [10], the result was inactive.
